The values below come from BindingDB's records for doi:10.1016/j.bmcl.2009.06.075 (Pfizer, 2009).

As usually defined, the IC50 is the point on the concentration scale where inhibition reaches its midpoint.

Each structure is given as a SMILES string.

The nature of this assay: Antagonist activity at human P2Y12 receptor assessed as inhibition of ADP-induced platelet-rich plasma aggregation by turbidimetric method.

Take `CCOC(=O)N1CCN(C(=O)[C@H](CCC(=O)O)NC(=O)c2cc(OCCN)cc(-c3ccccc3)n2)CC1` [(4S)4-({[4-(2-Aminoethoxy)6-phenylpyridin-2-yl]carbonyl}-amino)5-[4-(ethoxycarbonyl)iperazin-1-yl]-5-oxopentanoicAcid]: the IC50 turned out to be 7.5 µM.
Then `CCCCCOC(=O)N1CCN(C(=O)[C@H](CCC(=O)O)NC(=O)c2cc(OCCO)cc(-c3ccccc3)n2)CC1` [(4S)4-({[4-(2-Hydroxyethoxy)6-phenylpyridin-2-yl]carbonyl}-amino)5-oxo-5-{4-[(pentyloxy)carbonyl]piperazin-1-yl}pentanoicAcid], with 11.5 µM; and `CCCCCOC(=O)N1CCN(C(=O)[C@H](CCC(=O)O)NC(=O)c2cc(OCCOC)cc(-c3ccccc3)n2)CC1` [(4S)4-({[4-(2-Methoxyethoxy)6-phenylpyridin-2-yl]carbonyl}amino)5-oxo-5-{4-[(pentyloxy)carbonyl]piperazin-1-yl}pentanoic Acid], with 4.3 µM.
Then `CCCCCOC(=O)N1CCN(C(=O)[C@H](CCC(=O)O)NC(=O)c2cc(N3CCC(CN)CC3)cc(-c3ccccc3)n2)CC1` [(4S)4-[({4-[4-(Aminomethyl)piperidin-1-yl]-6-phenylpyridin-2-yl}carbonyl)amino]-5-oxo-5-{4-[(pentyloxy)carbonyl]piperazin-1-yl}pentanoic Acid], with 0.77 µM; and `CCCCCOC(=O)N1CCN(C(=O)[C@H](CCC(=O)O)NC(=O)c2cc(N3CCC(COC)CC3)cc(-c3ccccc3)n2)CC1` [(4S)4-[({4-[4-(Methoxymethyl)piperidin-1-yl]-6-phenylpyridin-2-yl}carbonyl)amino]-5-oxo-5-{4-[(pentyloxy)carbonyl]piperazin-1-yl}pentanoic Acid], with 3.9 µM; and `CCCCOc1cc(C(=O)N[C@@H](CCC(=O)O)C(=O)N2CCN(C(=O)OCC)CC2)nc(-c2ccccc2)c1` [(4S)4-{[(4-Butoxy-6-phenylpyridin-2-yl)carbonyl]amino}-5-[4-(ethoxycarbonyl)iperazin-1-yl]-5-oxopentanoic Acid], with 33.9 µM.
Then `CCCCCOC(=O)N1CCN(C(=O)[C@H](CCC(=O)O)NC(=O)c2cc(OCCCC)cc(-c3ccccc3)n2)CC1` [(4S)4-{[(4-Butoxy-6-phenylpyridin-2-yl)carbonyl]amino}-5-oxo-5-{4-[(pentyloxy)carbonyl]piperazin-1-yl}pentanoic Acid], with 28.4 µM; and `CCCOC(=O)N1CCN(C(=O)[C@H](CCC(=O)O)NC(=O)c2cccc(-c3ccccc3)n2)CC1` [(4S)5-Oxo-4-{[(6-phenylpyridin-2-yl)carbonyl]amino}-5-[4-(propoxycarbonyl)iperazin-1-yl]pentanoic Acid], with 62 µM; and `CCCCCOC(=O)N1CCN(C(=O)[C@H](CCC(=O)O)NC(=O)c2cc(OC3CCNCC3)cc(-c3ccccc3)n2)CC1` [(4S)5-Oxo-5-{4-[(pentyloxy)carbonyl]piperazin-1-yl}-4-({[6-phenyl-4-(piperidin-4-yloxy)yridin-2-yl]carbonyl}amino)entanoicAcid], with 0.55 µM.
As to `Cc1cccc(N2CCN(C(=O)[C@H](CCC(=O)O)NC(=O)c3cccc(-c4ccccc4)n3)CC2)c1` [(4S)5-[4-(3-Methylphenyl)piperazin-1-yl]-5-oxo-4-{[(6-phenylpyridin-2-yl)carbonyl]amino}pentanoicAcid], the IC50 was above 100 µM.
With `CCCCOC(=O)N1CCN(C(=O)[C@H](CCC(=O)O)NC(=O)c2cc(OCCOC)cc(-c3ccccc3)n2)CC1` [(4S)5-[4-(Butoxycarbonyl)iperazin-1-yl]-4-({[4-(2-methoxyethoxy)6-phenylpyridin-2-yl]carbonyl}amino)5-oxopentanoicAcid], the IC50 was 4.4 µM.
For the compound `CCCCOC(=O)N1CCN(C(=O)[C@H](CCC(=O)O)NC(=O)c2cc(OCCCC)cc(-c3ccccc3)n2)CC1` [(4S)5-[4-(Butoxycarbonyl)iperazin-1-yl]-4-{[(4-butoxy-6-phenylpyridin-2-yl)carbonyl]amino}-5-oxopentanoic Acid], the IC50 amounted to 26.9 µM.
The result for `CCOC(=O)N1CCN(C(=O)[C@H](CCC(=O)O)NC(=O)c2cc(OCCO)cc(-c3ccccc3)n2)CC1` [(4S)5-[4-(Ethoxycarbonyl)iperazin-1-yl]-4-({[4-(2-hydroxyethoxy)6-phenylpyridin-2-yl]carbonyl}amino)5-oxopentanoicAcid] reads 7.6 µM; that for `CCOC(=O)N1CCN(C(=O)[C@H](CCC(=O)O)NC(=O)c2cc(OCCCO)cc(-c3ccccc3)n2)CC1` [(4S)5-[4-(Ethoxycarbonyl)iperazin-1-yl]-4-({[4-(3-hydroxypropoxy)6-phenylpyridin-2-yl]carbonyl}amino)5-oxopentanoic Acid], 9 µM; that for `CCOC(=O)N1CCN(C(=O)[C@H](CCC(=O)O)NC(=O)c2cc(N3CCC(O)CC3)cc(-c3ccccc3)n2)CC1` [(4S)5-[4-(Ethoxycarbonyl)piperazin-1-yl]-4-({[4-(4-hydroxypiperidin-1-yl)6-phenylpyridin-2-yl]carbonyl}amino)5-oxopentanoicAcid], 9.8 µM.
Then `CCOC(=O)N1CCN(C(=O)[C@H](CCC(=O)O)NC(=O)c2cc(NC)cc(-c3ccccc3)n2)CC1` [(4S)5-[4-(Ethoxycarbonyl)piperazin-1-yl]-4-({[4-(methylamino)6-phenylpyridin-2-yl]carbonyl}amino)5-oxopentanoic Acid], with 45 µM; and `CCOC(=O)N1CCN(C(=O)[C@H](CCC(=O)O)NC(=O)c2cc(N3CCC(COC)CC3)cc(-c3ccccc3)n2)CC1` [(4S)5-[4-(Ethoxycarbonyl)piperazin-1-yl]-4-[({4-[4-(methoxymethyl)piperidin-1-yl]-6-phenylpyridin-2-yl}carbonyl)amino]-5-oxopentanoic Acid], with 9.9 µM.
As for `CCOC(=O)N1CCN(C(=O)[C@H](CCC(=O)O)NC(=O)c2cc(N3CCC(N4CCCC4)CC3)cc(-c3ccccc3)n2)CC1` [(4S)5-[4-(Ethoxycarbonyl)piperazin-1-yl]-5-oxo-4-({[6-phenyl-4-(4-pyrrolidin-1-ylpiperidin-1-yl)pyridin-2-yl]carbonyl}amino)pentanoic Acid], the IC50 came out at 2 µM.
In the case of `CCCCCCCCOC(=O)N1CCN(C(=O)[C@H](CCC(=O)O)NC(=O)c2cccc(-c3ccccc3)n2)CC1` [(4S)5-{4-[(Octyloxy)carbonyl]piperazin-1-yl}-5-oxo-4-{[(6-phenylpyridin-2-yl)carbonyl]amino}pentanoic Acid], the IC50 was above 100 µM.
The result for `CCOC(=O)N1CCN(C(=O)[C@H](CCC(=O)O)NC(=O)c2cc(OC(CC)C(=O)N(CC)CC)cc(-c3ccccc3)n2)CC1` (stereo partly drawn) [(4S)-4-(4-(1-(diethylamino)-1-oxobutan-2-yloxy)-6-phenylpicolinamido)-5-(4-(ethoxycarbonyl)piperazin-1-yl)-5-oxopentanoic acid] reads 3 µM.
With `Cc1cccc(N2CCN(C(=O)[C@H](CCC(=O)O)NC(=O)c3cc(-c4ccccc4)cc(-c4ccccc4)n3)CC2)c1` [(S)-4-(4,6-diphenylpicolinamido)-5-oxo-5-(4-m-tolylpiperazin-1-yl)pentanoic acid], the half-inhibitory concentration (IC50) is above 100 µM.
For the compound `CCOC(=O)N1CCN(C(=O)[C@H](CCC(=O)O)NC(=O)c2cc(NCCN(C)C)cc(-c3ccccc3)n2)CC1` [(S)-4-(4-(2-(dimethylamino)ethylamino)-6-phenylpicolinamido)-5-(4-(ethoxycarbonyl)piperazin-1-yl)-5-oxopentanoic acid], the IC50 worked out at 36 µM.
